Source: patent US9353090B2, “Heterocyclic carboxylic acids as activators of soluble guanylate cyclase” (Boehringer Ingelheim International GmbH, priority 2014, dated 2016)
In brackets after ≈: the same amount, converted by molar mass.

What was measured:
[1] = target: human soluble guanylate cyclase alpha 1 and beta 1 subunits (sGC) (Homo sapiens (Human), UniProt Q02108+Q02153); assay: sGC cellular activator assay (cGMP, HTRF), in the presence and absence of 50% human serum; type: cell-based; details: CHO cells stably expressing human sGC alpha 1/beta 1, preincubated with 40 microM ODQ; cGMP by HTRF; Table 2 does not state whether with or without 50% human serum
Chain of human soluble guanylate cyclase alpha 1 and beta 1 subunits (sGC) (Q02108 whole entry partner): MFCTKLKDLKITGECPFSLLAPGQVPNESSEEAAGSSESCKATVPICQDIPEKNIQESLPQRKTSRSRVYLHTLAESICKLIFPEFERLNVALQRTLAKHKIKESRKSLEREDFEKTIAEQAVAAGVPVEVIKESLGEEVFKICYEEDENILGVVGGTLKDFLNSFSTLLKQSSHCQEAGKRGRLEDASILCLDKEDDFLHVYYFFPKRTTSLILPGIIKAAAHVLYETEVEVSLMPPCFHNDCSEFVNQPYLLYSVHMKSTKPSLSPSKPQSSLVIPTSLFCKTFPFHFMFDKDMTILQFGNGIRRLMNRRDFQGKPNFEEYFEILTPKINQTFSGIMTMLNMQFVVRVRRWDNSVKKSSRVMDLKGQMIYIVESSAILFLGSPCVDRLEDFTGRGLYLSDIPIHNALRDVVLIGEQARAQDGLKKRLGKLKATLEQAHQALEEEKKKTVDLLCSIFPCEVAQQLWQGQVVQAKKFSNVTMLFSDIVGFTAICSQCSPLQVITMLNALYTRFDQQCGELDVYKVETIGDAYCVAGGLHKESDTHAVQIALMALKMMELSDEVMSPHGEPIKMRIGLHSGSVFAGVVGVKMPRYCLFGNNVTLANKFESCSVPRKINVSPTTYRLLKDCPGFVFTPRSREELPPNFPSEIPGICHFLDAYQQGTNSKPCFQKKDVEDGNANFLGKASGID
Chain of human soluble guanylate cyclase alpha 1 and beta 1 subunits (sGC) (Q02153 whole entry): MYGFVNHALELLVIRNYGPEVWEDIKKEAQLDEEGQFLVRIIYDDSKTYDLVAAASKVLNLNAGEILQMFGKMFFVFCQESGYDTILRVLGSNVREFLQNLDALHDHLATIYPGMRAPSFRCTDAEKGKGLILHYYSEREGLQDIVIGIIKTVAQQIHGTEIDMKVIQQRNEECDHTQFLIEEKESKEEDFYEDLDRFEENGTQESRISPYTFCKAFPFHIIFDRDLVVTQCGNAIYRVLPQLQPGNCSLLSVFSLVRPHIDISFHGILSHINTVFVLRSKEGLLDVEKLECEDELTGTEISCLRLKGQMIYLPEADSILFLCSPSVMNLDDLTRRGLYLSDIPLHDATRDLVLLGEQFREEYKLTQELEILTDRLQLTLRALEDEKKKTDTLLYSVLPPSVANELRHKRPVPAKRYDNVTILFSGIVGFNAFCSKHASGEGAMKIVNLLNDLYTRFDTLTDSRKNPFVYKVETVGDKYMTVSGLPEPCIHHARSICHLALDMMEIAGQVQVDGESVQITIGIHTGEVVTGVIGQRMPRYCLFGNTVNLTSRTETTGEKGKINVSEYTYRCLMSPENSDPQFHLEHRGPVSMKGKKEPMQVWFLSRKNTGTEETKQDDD
How it was run: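 First, CHO-sGC (human α1β1) cells get 1 h ODQ at 40 microM with IBMX and 0.1% BSA. Finally, cGMP is quantified by HTRF and EC50 computed.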

physchem = details: kinetic from dmso stock
Method: Solubility is measured by the following method.
100 uL, 10 mM DMSO stock solution of each compound is prepared in a 96 well plate format. The experiment is done in single determination at 3 pH values (2.2, 4.5 and 6.8). For each pH and one reference, 40 uL of each compound is needed.
McIlvaine pH 2.2: To 2.076 g citric acid monohydrate and 0.043 g Na2HPO4×2H2O add 100 ml deionized water
McIlvaine pH 4.5: To 1.166 g citric acid monohydrate and 1.585 g Na2HPO4×2H2O add 100 ml deionized water
McIlvaine pH 6.8: To 0.476 g citric acid monohydrate and 2.753 g Na2HPO4×2H2O add 100 ml deionized water
With a suitable liquid handling device (Multipette® or a liquid handler) 390 uL of each buffer solution and 10 uL of compound is added to each well of a 96 deep well plate. The plates are covered firmly and shaken for 24 h on an over head shaker (at 54 RPM) at room temperature. The DMSO content in the final buffer is 2.5% v/v.
After 24 h the plates are centrifuged to remove droplets on the lid before opening (for ˜5 min at 2500 RPM).
The filtration is done under vacuum with Millipore 96 well filter plate. Filtrate is collected in a deep well plate and transferred to a suitable plate for UPLC analysis.
The reference plate is prepared by adding 10 uL of compound to 390 uL of 50:50 acetonitrile/water in a 96 deep well plate and transferred to a suitable plate for UPLC analysis. Wells are checked visually for precipitation, any presence noted under comments in reported results.
The samples are measured with UPLC-UV using the chromatographic method described below.
Waters Empower®2 software is used for generating Sample Sets (according to the plate layout), Sample Set Methods and Instrument Methods.
One Sample Set comprises the methods for three 96 well plates (one reference plate and two sample plates, and includes one Sample Set Method and one Instrument Method).
Data Processing and Analysis
The UV chromatograms collected at 254 nm are integrated and processed.
It is assumed that the compound is completely dissolved in the reference solution (50:50 acetonitrile/water)

[2] = Human liver microsome (HLM) metabolic stability assay; type: in vitro ADME; details: human liver microsomes
How it was run: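 Remaining parent measured by LC/MS/MS (ESI, MRM) at 5, 15, 30 and 60 min relative to 0 min. Incubation: 1 uM compound, HLMs, NADPH-started, 37° C., 60 min total, single replicate. Slope of ln(% remaining) gives t1/2 = 0.693/slope, then CLint, CLh and % Qh.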

[3] = pH 2.2, aqueous buffer, Solubility (pH 2.2)
[4] = pH 4.5, aqueous buffer, Solubility (pH 4.5)
[5] = pH 6.8, aqueous buffer, Solubility (pH 6.8)

CCO[C@@H]1CN(c2nc(-c3cccc(C)c3OCc3cc4c(c(OC)c3)CN(C3CCOCC3)CC4)cs2)CC[C@@H]1C(=O)O [Compound 228]
EC50 [1]: 6 nM | solubility at 24 h (physchem; [3]): 148 µg/mL (≈ 239 µM) | solubility at 24 h (physchem; [4]): 114 µg/mL (≈ 183 µM) | solubility at 24 h (physchem; [5]): 107 µg/mL (≈ 172 µM) | Metabolic stability (Qh %), % hepatic blood flow [2]: <24%

Cc1ccc(OCc2cnc3c(c2)CCN(C2CCOCC2)C3)c(-c2csc(N3CC[C@@]4(C(=O)O)C[C@H]4C3)n2)c1 [Compound 194]
EC50 [1]: 63 nM | solubility at 24 h (physchem; [3]): 140 µg/mL (≈ 250 µM) | solubility at 24 h (physchem; [4]): 70 µg/mL (≈ 125 µM) | solubility at 24 h (physchem; [5]): 57 µg/mL (≈ 102 µM) | Metabolic stability (Qh %), % hepatic blood flow [2]: <24%

CCc1cc(COc2c(C)cccc2-c2cccc(N3C[C@@H]4C[C@]4(C(=O)O)[C@H]3COC)n2)cc2c1CN(CC1COCCO1)CC2 (some centres unmarked) [Compound 56]
EC50 [1]: 26 nM | solubility at 24 h (physchem; [3]): 140 µg/mL (≈ 223 µM) | solubility at 24 h (physchem; [4]): 120 µg/mL (≈ 191 µM) | solubility at 24 h (physchem; [5]): 88 µg/mL (≈ 140 µM) | Metabolic stability (Qh %), % hepatic blood flow [2]: <24%

CO[C@H]1CN(c2cccc(-c3cccc(C)c3OCc3cc(C)c4c(c3)CCN(C3CCOCC3)C4)n2)CC[C@@H]1C(=O)O [Compound 298]
EC50 [1]: 578 nM | solubility at 24 h (physchem; [3]): 131 µg/mL (≈ 224 µM) | solubility at 24 h (physchem; [4]): 98.1 µg/mL (≈ 167 µM) | solubility at 24 h (physchem; [5]): 80.1 µg/mL (≈ 137 µM) | Metabolic stability (Qh %), % hepatic blood flow [2]: 34%

CCO[C@H]1CN(c2cccc(-c3cc(C)ccc3OCc3cc4c(c(OC)c3)CN(C3CCOCC3)CC4)n2)CC[C@H]1C(=O)O [Compound 235]
EC50 [1]: 680 nM | solubility at 24 h (physchem; [3]): 128 µg/mL (≈ 208 µM) | solubility at 24 h (physchem; [4]): 127 µg/mL (≈ 206 µM) | solubility at 24 h (physchem; [5]): 119 µg/mL (≈ 193 µM) | Metabolic stability (Qh %), % hepatic blood flow [2]: 50%

CO[C@H]1CN(c2cccc(-c3cccc(C)c3OCc3ccc4c(c3C)CCN(C3CCOCC3)CC4)n2)CC[C@@H]1C(=O)O [Compound 296]
EC50 [1]: 363 nM | solubility at 24 h (physchem; [3]): 132 µg/mL (≈ 219 µM) | solubility at 24 h (physchem; [4]): 77.2 µg/mL (≈ 129 µM) | solubility at 24 h (physchem; [5]): 68.8 µg/mL (≈ 115 µM) | Metabolic stability (Qh %), % hepatic blood flow [2]: <24%

Cc1cccc(-c2csc(N3CC[C@@]4(C(=O)O)C[C@H]4C3)n2)c1OCc1ccc2c(c1C)CCN(C1CCCOC1)C2 (some centres unmarked) [Compound 87]
EC50 [1]: 2 nM | solubility at 24 h (physchem; [3]): 120 µg/mL (≈ 209 µM) | solubility at 24 h (physchem; [4]): 67 µg/mL (≈ 117 µM) | solubility at 24 h (physchem; [5]): 28 µg/mL (≈ 48.8 µM) | Metabolic stability (Qh %), % hepatic blood flow [2]: 55%

COC[C@H]1N(c2cccc(-c3cccc(C)c3OCc3ccc4c(c3)CCN(C3COC3)C4)n2)C[C@@H]2C[C@@]21C(=O)O [Compound 43]
EC50 [1]: 63 nM | solubility at 24 h (physchem; [3]): 140 µg/mL (≈ 252 µM) | solubility at 24 h (physchem; [4]): 120 µg/mL (≈ 216 µM) | solubility at 24 h (physchem; [5]): 97 µg/mL (≈ 175 µM) | Metabolic stability (Qh %), % hepatic blood flow [2]: <24%

Cc1ccc(OCc2ccc3c(c2C)CCN(C2CCOCC2)CC3)c(-c2cccc(N3C[C@@H]4C[C@]4(C(=O)O)C3)n2)c1 [Compound 41]
EC50 [1]: 16 nM | solubility at 24 h (physchem; [3]): 100 µg/mL (≈ 176 µM) | solubility at 24 h (physchem; [4]): 84 µg/mL (≈ 148 µM) | solubility at 24 h (physchem; [5]): 45 µg/mL (≈ 79.3 µM) | Metabolic stability (Qh %), % hepatic blood flow [2]: <24%

CCO[C@@H]1CN(c2cccc(-c3cccc(C)c3OCc3cc4c(c(OC)c3)CN(C3CCOCC3)CC4)n2)CC[C@@H]1C(=O)O [Compound 230]
EC50 [1]: 6 nM | solubility at 24 h (physchem; [3]): 131 µg/mL (≈ 213 µM) | solubility at 24 h (physchem; [4]): 128 µg/mL (≈ 209 µM) | solubility at 24 h (physchem; [5]): 120 µg/mL (≈ 194 µM) | Metabolic stability (Qh %), % hepatic blood flow [2]: 83%

Cc1ccc(OCc2cc(C)c3c(c2C)CCN(C2COC2)C3)c(-c2csc(N3CC[C@@]4(C(=O)O)C[C@H]4C3)n2)c1 [Compound 126]
EC50 [1]: 44 nM | solubility at 24 h (physchem; [3]): 130 µg/mL (≈ 232 µM) | solubility at 24 h (physchem; [4]): 2.8 µg/mL (≈ 5 µM) | solubility at 24 h (physchem; [5]): 1.8 µg/mL (≈ 3.22 µM) | Metabolic stability (Qh %), % hepatic blood flow [2]: <24%

CO[C@@H]1CN(c2cccc(-c3cccc(C)c3OCc3ccc4c(c3C)CN(C3CCOCC3)C4)n2)CC[C@@H]1C(=O)O [Compound 307]
EC50 [1]: 19 nM | solubility at 24 h (physchem; [3]): 127 µg/mL (≈ 223 µM) | solubility at 24 h (physchem; [4]): 101 µg/mL (≈ 176 µM) | solubility at 24 h (physchem; [5]): 81.2 µg/mL (≈ 142 µM) | Metabolic stability (Qh %), % hepatic blood flow [2]: <24%

CCc1cc(COc2ccc(C)cc2-c2cccc(N3CC[C@H](C(=O)O)[C@H](OC)C3)n2)cc2c1CN(C1CCOCC1)CC2 [Compound 79]
EC50 [1]: 25 nM | solubility at 24 h (physchem; [3]): 140 µg/mL (≈ 233 µM) | solubility at 24 h (physchem; [4]): 120 µg/mL (≈ 200 µM) | solubility at 24 h (physchem; [5]): 91 µg/mL (≈ 152 µM) | Metabolic stability (Qh %), % hepatic blood flow [2]: <24%

COC[C@H]1N(c2cccc(-c3cccc(C)c3OCc3cc(C)c4c(c3C)CCN(C3CCOCC3)C4)n2)C[C@@H]2C[C@@]21C(=O)O [Compound 215]
EC50 [1]: 10 nM | solubility at 24 h (physchem; [3]): 143 µg/mL (≈ 233 µM) | solubility at 24 h (physchem; [4]): 135 µg/mL (≈ 221 µM) | solubility at 24 h (physchem; [5]): 129 µg/mL (≈ 211 µM) | Metabolic stability (Qh %), % hepatic blood flow [2]: <24%

CO[C@@H]1CN(c2cccc(-c3cccc(C)c3OCc3ccc4c(c3)C(C)(C)CN(C3CCOCC3)CC4)n2)CC[C@@H]1C(=O)O [Compound 324]
EC50 [1]: 2 nM | solubility at 24 h (physchem; [3]): 134 µg/mL (≈ 218 µM) | solubility at 24 h (physchem; [4]): 103 µg/mL (≈ 168 µM) | solubility at 24 h (physchem; [5]): 77.5 µg/mL (≈ 126 µM) | Metabolic stability (Qh %), % hepatic blood flow [2]: <24%

Cc1ccc(OCc2cc(C)c3c(c2C)CCN(C2CCOC2)C3)c(-c2csc(N3CC[C@@]4(C(=O)O)C[C@H]4C3)n2)c1 (some centres unmarked) [Compound 129]
EC50 [1]: 6 nM | solubility at 24 h (physchem; [3]): 120 µg/mL (≈ 209 µM) | solubility at 24 h (physchem; [4]): 7.7 µg/mL (≈ 13.4 µM) | solubility at 24 h (physchem; [5]): 0.49 µg/mL (≈ 0.854 µM) | Metabolic stability (Qh %), % hepatic blood flow [2]: <24%

Cc1cc(COc2c(C)cccc2-c2cccc(N3CC[C@@]4(C(=O)O)C[C@H]4C3)n2)cc2c1CN(C1CCOCC1)CC2 [Compound 15]
EC50 [1]: 2 nM | solubility at 24 h (physchem; [3]): 110 µg/mL (≈ 194 µM) | solubility at 24 h (physchem; [4]): 90 µg/mL (≈ 159 µM) | solubility at 24 h (physchem; [5]): 51 µg/mL (≈ 89.8 µM) | Metabolic stability (Qh %), % hepatic blood flow [2]: 51%

Cc1cc(COc2ccccc2-c2cccc(N3CC[C@@]4(C(=O)O)C[C@H]4C3)n2)cc2c1CN(C1CCOCC1)CC2 [Compound 12]
EC50 [1]: 12 nM | solubility at 24 h (physchem; [3]): 110 µg/mL (≈ 199 µM) | solubility at 24 h (physchem; [4]): 90 µg/mL (≈ 163 µM) | solubility at 24 h (physchem; [5]): 33 µg/mL (≈ 59.6 µM) | Metabolic stability (Qh %), % hepatic blood flow [2]: <24%

COC[C@H]1N(c2cccc(-c3cccc(C)c3OCc3ccc4c(c3F)CCN(C3CCOC3)CC4)n2)C[C@@H]2C[C@@]21C(=O)O (some centres unmarked) [Compound 268]
EC50 [1]: 4 nM | solubility at 24 h (physchem; [3]): 119 µg/mL (≈ 198 µM) | solubility at 24 h (physchem; [4]): 88.6 µg/mL (≈ 147 µM) | solubility at 24 h (physchem; [5]): 57.8 µg/mL (≈ 96.1 µM) | Metabolic stability (Qh %), % hepatic blood flow [2]: 40%

CCO[C@H]1CN(c2nccc(-c3cccc(C)c3OCc3ccc4c(c3C)CCN(C3CCOCC3)CC4)n2)CC[C@H]1C(=O)O [Compound 275]
EC50 [1]: 32 nM | solubility at 24 h (physchem; [3]): 117 µg/mL (≈ 190 µM) | solubility at 24 h (physchem; [4]): 81.3 µg/mL (≈ 132 µM) | solubility at 24 h (physchem; [5]): 84.5 µg/mL (≈ 137 µM) | Metabolic stability (Qh %), % hepatic blood flow [2]: 28%

CO[C@H]1CN(c2nc(-c3cccc(Cl)c3OCc3ccc4c(c3)[C@H](C)CN(C3CCOCC3)CC4)cs2)CC[C@H]1C(=O)O [Compound 320]
EC50 [1]: 4 nM | solubility at 24 h (physchem; [3]): 115 µg/mL (≈ 184 µM) | solubility at 24 h (physchem; [4]): 60.6 µg/mL (≈ 96.8 µM) | solubility at 24 h (physchem; [5]): 46.4 µg/mL (≈ 74.1 µM) | Metabolic stability (Qh %), % hepatic blood flow [2]: 26%

CO[C@@H]1CN(c2cccc(-c3cc(C)ccc3OCc3ccc4c(c3)CCN(C3CCOCC3)C4)n2)CC[C@@H]1C(=O)O [Compound 74]
EC50 [1]: 20 nM | solubility at 24 h (physchem; [3]): 120 µg/mL (≈ 210 µM) | solubility at 24 h (physchem; [4]): 100 µg/mL (≈ 175 µM) | solubility at 24 h (physchem; [5]): 80 µg/mL (≈ 140 µM) | Metabolic stability (Qh %), % hepatic blood flow [2]: <24%

Cc1cc(COc2c(C)cccc2-c2csc(N3CC[C@@]4(C(=O)O)C[C@H]4C3)n2)c(C)c2c1CN(C1CCCOC1)CC2 (some centres unmarked) [Compound 99]
EC50 [1]: 3 nM | solubility at 24 h (physchem; [3]): 120 µg/mL (≈ 204 µM) | solubility at 24 h (physchem; [4]): 69 µg/mL (≈ 117 µM) | solubility at 24 h (physchem; [5]): 14 µg/mL (≈ 23.8 µM) | Metabolic stability (Qh %), % hepatic blood flow [2]: 59%

CO[C@@H]1CN(c2cccc(-c3cccc(C)c3OCc3ccc4c(c3)CCN(C3CCOCC3)C4)n2)CC[C@@H]1C(=O)O [Compound 67]
EC50 [1]: 23 nM | solubility at 24 h (physchem; [3]): 100 µg/mL (≈ 175 µM) | solubility at 24 h (physchem; [4]): 92 µg/mL (≈ 161 µM) | solubility at 24 h (physchem; [5]): 71 µg/mL (≈ 124 µM) | Metabolic stability (Qh %), % hepatic blood flow [2]: <24%

COC[C@H]1N(c2cccc(-c3cccc(C)c3OCc3ccc4c(c3)CCN(C3CCOCC3)C4)n2)C[C@@H]2C[C@@]21C(=O)O [Compound 44]
EC50 [1]: 58 nM | solubility at 24 h (physchem; [3]): 130 µg/mL (≈ 223 µM) | solubility at 24 h (physchem; [4]): 110 µg/mL (≈ 188 µM) | solubility at 24 h (physchem; [5]): 86 µg/mL (≈ 147 µM) | Metabolic stability (Qh %), % hepatic blood flow [2]: <24%
